According to article PMC5570900, “Exploiting a novel conformational switch to control innate immunity mediated by complement protein C3a” (Nature Communications, 2017):

Experiments:
C3aR [1] = biological target: T1, C3aR (Homo sapiens, UniProt Q16581); assay: Intracellular Ca2+ release in HEK293 cells transfected with C3aR; assay type: cell-based; parameters: Concentration-dependent Ca^2+ release in human monocyte-derived macrophages (HMDMs); endogenous in cells; host or cells: primary human monocyte-derived macrophages (HMDMs)
T1 sequence (Q16581 1-482): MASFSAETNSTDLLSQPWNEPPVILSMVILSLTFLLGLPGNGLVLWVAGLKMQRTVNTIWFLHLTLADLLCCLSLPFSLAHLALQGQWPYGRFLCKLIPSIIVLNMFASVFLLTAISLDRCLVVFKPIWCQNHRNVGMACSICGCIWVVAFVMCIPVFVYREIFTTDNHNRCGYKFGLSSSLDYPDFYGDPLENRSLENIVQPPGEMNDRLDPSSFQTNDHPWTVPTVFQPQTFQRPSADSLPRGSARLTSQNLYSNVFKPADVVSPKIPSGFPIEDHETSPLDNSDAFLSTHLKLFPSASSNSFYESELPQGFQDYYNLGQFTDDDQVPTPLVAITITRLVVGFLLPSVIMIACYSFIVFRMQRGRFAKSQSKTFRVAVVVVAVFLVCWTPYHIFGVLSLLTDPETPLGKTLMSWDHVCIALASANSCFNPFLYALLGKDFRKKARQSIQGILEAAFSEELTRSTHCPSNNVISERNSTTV

C5aR = biological target: T2, C5aR (Homo sapiens, UniProt P21730); assay: [125I]-hC5a competition binding on HMDMs; settings: [125I]-hC5a 25 pM
T2 construct: endogenous in cells; host or cells: primary human monocyte-derived macrophages (HMDMs)
T2 sequence (P21730 1-350): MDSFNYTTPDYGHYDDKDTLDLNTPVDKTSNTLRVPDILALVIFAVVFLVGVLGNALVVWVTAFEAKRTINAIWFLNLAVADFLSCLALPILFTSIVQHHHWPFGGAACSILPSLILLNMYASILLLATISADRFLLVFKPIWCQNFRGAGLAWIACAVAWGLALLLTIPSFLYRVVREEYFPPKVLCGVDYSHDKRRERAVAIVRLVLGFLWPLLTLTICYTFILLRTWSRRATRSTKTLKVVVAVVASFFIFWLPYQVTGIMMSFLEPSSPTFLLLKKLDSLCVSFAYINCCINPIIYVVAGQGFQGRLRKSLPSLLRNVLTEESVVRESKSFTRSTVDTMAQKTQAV
Method: (§1) Receptor binding was performed by ligand competition with labelled 80 pM [^125I]-C3a or 25 pM [^125I]-C5a (2200 Ci/mmol; Perkin Elmer, Torrance, CA, USA) on HMDMs (1.2 × 10^6 cells/ml). HMDMs were treated with [^125I]-C3a or [^125I]-C5a ± various concentrations of unlabelled C3a/C5a or experimental ligands were diluted with assay buffer (50 mM Tris, 3 mM MgCl2, 0.1 mM CaCl2, 0.5% (w/v) BSA, pH 7.4) for 60 min at room temperature. Unbound [^125I]-C3a or [^125I]-C5a was removed by filtration through glass microfibre filter GF/B (Whatman Iner. Ltd, England) and washed three times with cold buffer (50 mM Tris-HCl pH 7.4). Bound [^125I]-C3a or [^125I]-C5a were assessed by scintillation counting on Microbeta counter. Specific binding was defined as the difference between total binding and nonspecific binding as determined in the presence of 1 μM unlabelled C3a or C5a[4].

C3aR [2] = biological target: T1, C3aR; assay: [125I]-hC3a competition binding on HMDMs; parameters: Concentration-dependent Ca^2+ release in human monocyte-derived macrophages (HMDMs); endogenous in cells; host or cells: primary human monocyte-derived macrophages (HMDMs); settings: [125I]-hC3a 80 pM
Method: as §1

Rat plasma stability = assay type: in vitro ADME; settings: neat rat plasma, 37 °C, over 4 h (C3a up to 10 min)
Method: (§2) For plasma stability studies, C3a and experimental compounds (10 μL, 1 mM in DMSO) were added to neat rat plasma (190 μL) and heated to 37 °C in a circulating water bath. Aliquots (20 µL) were collected at time points (0, 2, 5 and 10 min for C3a; 0, 5, 15, 30, 60, 120 and 240 min for other test compounds) and added directly to MeCN/H2O (80 µL, 9:1). The samples were centrifuged at 13,000 g for 3 min before supernatants were isolated and analyzed for test compound degradation via LC-MS. For liver microsomal stability studies, commercially available rat liver microsomes from Life Technologies, GIBCO were used. In brief, microsomes stored at −80 °C were slowly defrosted on ice. Test compounds (183 μL, 1 μM in 100 mM phosphate buffer pH 7.4 containing 0.1 % DMSO) were added to microsomes (5 μL) and NADPH (2 µL, 20 mM). Test solutions were heated in a circulating water bath at 37 °C for 5 min before additional cofactor NADPH (10 μL, 20 mM) was added. Aliquots (20 μL) were taken at time points (0, 5, 15, 30 and 60 min from the second addition of NADPH). Aliquots were added to MeCN/H2O (80 μL, 9:1) and centrifuged at 13,000 g for 3 min. Supernatants were analyzed for test compound degradation by LC-MSMS. Concentrations were plotted as a function of time on a semi-logarithmic graph. Rat plasma and microsomal activity was confirmed by rapid degradation of SLIGRL-NH2 (t1/2 < 5 min) in a parallel experiment.

[3] = Rat liver microsomal stability; assay type: in vitro ADME; settings: rat liver microsomes, NADPH, 37 °C, over 1 h
Method: as §2

[4] = tested on: wild-type human HEK293 cells (C3aR−/−); assay: Intracellular Ca2+ release in wild-type HEK293 cells; assay type: cell-based

## Cc1[nH]c(C(c2ccccc2)c2ccccc2)nc1C(=O)N[C@@H](CCCNC(=N)N)C(=O)O [Compound 3]
C3aR [1]; HEK293 cells transfected with C3aR (C3aR+/+), compound alone
  Intracellular Ca2+ release: did induce Ca^2+ release
C5aR
  C5aR binding by competition with [125I]-hC5a: no binding
C3aR [2]
  C3aR binding by competition with [125I]-hC3a: compete with ^125I-labelled C3a
Rat plasma stability
  Stability in rat plasma: remained intact
[3]
  Stability in rat liver microsomes: much more stable than C3a
[4]
  Intracellular Ca2+ release: did not induce Ca^2+ release

## N=C(N)NCCCC(NC(=O)c1ccc(C(c2ccccc2)c2ccccc2)s1)C(=O)O (stereo not drawn) [Compound 6]
C3aR [1]; C3aR-HEK293 cells, pre-treatment 30 min before C3a or 3
  Effect on Ca2+ release induced by C3a or 3: prevented
C5aR
  C5aR binding by competition with [125I]-hC5a: no binding
C3aR [2]
  C3aR binding by competition with [125I]-hC3a: compete with ^125I-labelled C3a
Rat plasma stability
  Stability in rat plasma: remained intact
[3]
  Stability in rat liver microsomes: much more stable than C3a
[4]
  Intracellular Ca2+ release: did not induce Ca^2+ release
